Experimental data: patent publication US20240208992A1, “MACROCYCLES AS CFTR MODULATORS” (Idorsia Pharmaceuticals Ltd, priority 2021, published 2024)

Target: human F508del-CFTR (Homo sapiens, UniProt P13569, DEL508-508)
Experiment: F508del-CFTR cell surface expression (corrector activity), DiscoveRx ß-galactosidase complementation chemiluminescence assay in recombinant U2OS cell line;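 also: U2OS cells co-expressing ProLink-tagged F508del-CFTR and a membrane-anchored enzyme acceptor, where more surface CFTR restores β-galactosidase activity measured by chemiluminescence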
Details: for EC50: EC50, F508del-CFTR cell surface expression, U2OS cells, 16h compound incubation, geomean values; for Emax: U2OS, in relation to Emax of corrector lumacaftor (=100%), arithmetic mean values

Sequence of human F508del-CFTR (P13569 with tags, fused parts or gaps DEL508-508): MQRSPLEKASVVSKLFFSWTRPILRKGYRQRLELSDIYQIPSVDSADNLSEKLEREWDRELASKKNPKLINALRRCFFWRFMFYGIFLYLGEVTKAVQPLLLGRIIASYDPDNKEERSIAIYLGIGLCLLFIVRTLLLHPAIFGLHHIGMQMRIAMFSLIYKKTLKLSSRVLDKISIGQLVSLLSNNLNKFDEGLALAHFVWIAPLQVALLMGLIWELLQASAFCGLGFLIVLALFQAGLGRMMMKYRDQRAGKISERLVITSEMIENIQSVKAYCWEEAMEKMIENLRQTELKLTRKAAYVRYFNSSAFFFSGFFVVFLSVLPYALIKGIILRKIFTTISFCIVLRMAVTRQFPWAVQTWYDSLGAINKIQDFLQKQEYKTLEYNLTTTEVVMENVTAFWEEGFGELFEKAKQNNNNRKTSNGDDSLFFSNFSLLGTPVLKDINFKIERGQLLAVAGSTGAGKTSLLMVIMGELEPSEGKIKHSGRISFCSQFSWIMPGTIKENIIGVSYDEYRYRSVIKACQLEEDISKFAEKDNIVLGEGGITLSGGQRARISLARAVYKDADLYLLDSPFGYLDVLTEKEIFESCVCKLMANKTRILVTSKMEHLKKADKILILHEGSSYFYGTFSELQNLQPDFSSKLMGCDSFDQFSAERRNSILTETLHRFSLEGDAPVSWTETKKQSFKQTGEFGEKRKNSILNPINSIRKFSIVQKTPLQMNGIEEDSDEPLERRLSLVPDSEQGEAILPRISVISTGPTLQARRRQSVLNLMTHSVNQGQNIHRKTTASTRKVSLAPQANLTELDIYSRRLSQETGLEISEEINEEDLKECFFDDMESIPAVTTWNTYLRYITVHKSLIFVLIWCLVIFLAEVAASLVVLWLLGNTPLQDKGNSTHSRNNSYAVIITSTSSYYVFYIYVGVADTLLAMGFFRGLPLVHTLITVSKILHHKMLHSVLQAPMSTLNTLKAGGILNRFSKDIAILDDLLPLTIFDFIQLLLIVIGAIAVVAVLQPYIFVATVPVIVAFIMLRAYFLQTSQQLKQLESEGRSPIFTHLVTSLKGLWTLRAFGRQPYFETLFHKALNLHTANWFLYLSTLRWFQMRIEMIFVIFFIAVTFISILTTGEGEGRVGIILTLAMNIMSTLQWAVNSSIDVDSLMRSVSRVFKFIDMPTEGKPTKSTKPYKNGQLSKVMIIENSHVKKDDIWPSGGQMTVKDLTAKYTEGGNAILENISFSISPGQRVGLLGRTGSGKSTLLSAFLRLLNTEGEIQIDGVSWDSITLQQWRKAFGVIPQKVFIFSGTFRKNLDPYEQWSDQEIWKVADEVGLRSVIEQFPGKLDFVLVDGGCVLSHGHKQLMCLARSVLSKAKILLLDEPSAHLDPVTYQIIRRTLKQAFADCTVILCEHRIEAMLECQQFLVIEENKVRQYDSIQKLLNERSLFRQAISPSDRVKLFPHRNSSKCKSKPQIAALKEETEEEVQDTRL

EC50 | Emax | SMILES
229 nM | 330% | CC(C)C[C@H]1C(=O)N2CCCC[C@@H]2C(=O)N[C@H](Cc2ccccc2)COc2ccc3ncccc3c2C(=O)N[C@H](C(=O)NCCc2nc(C3CC3)no2)CC(=O)N1C [Example 505, (9S,13S,19aR,22R)-22-benzyl-N-(2-(3-cyclopropyl-1,2,4-oxadiazol-5-yl)ethyl)-13-isobutyl-12-methyl-7,11,14,20-tetraoxo-7,8,9,10,11,12,13,14,17,18,19,19a,20,21,22,23-hexadecahydro-16H-pyrido[2′,1′:6,7][1]oxa[4,7,10,14]tetraazacycloheptadecino[16,17-f]quinoline-9-carboxamide]
318 nM | 211% | CCN1C(=O)C[C@@H](C(=O)NCCc2cc(C)no2)NC(=O)c2c(cnc3ccccc23)OC[C@@H](Cc2ccccc2)NC(=O)[C@H]2CCCCN2C(=O)[C@@H]1CC(C)C [Example 506, (9S,13S,19aR,22R)-22-benzyl-12-ethyl-13-isobutyl-N-(2-(3-methylisoxazol-5-yl)ethyl)-7,11,14,20-tetraoxo-7,8,9,10,11,12,13,14,17,18,19,19a,20,21,22,23-hexadecahydro-16H-pyrido[2′,1′:6,7][1]oxa[4,7,10,14]tetraazacycloheptadecino[17,16-c]quinoline-9-carboxamide]
382 nM | 378% | Cc1cc(CCNC(=O)[C@@H]2CC(=O)N(C)[C@@H](CC(C)C)C(=O)N(C)[C@H](C3CC3)C(=O)N[C@H](Cc3ccccc3)COc3ccc4ccccc4c3C(=O)N2)on1 [Example 508, (3S,7S,10R,13R)-13-benzyl-10-cyclopropyl-7-isobutyl-6,9-dimethyl-N-(2-(3-methylisoxazol-5-yl)ethyl)-1,5,8,11-tetraoxo-1,2,3,4,5,6,7,8,9,10,11,12,13,14-tetradecahydronaphtho[1,2-p][1]oxa[4,7,10,14]tetraazacycloheptadecine-3-carboxamide]
108 nM | 256% | Cc1cc(CCNC(=O)[C@@H]2CC(=O)N(C)[C@@H](CC(C)C)C(=O)N3CCN(c4ccccc4)C[C@@H]3C(=O)N[C@H](Cc3ccccc3)COc3cnc4ccccc4c3C(=O)N2)on1 [Example 510, (9S,13S,19aR,22R)-22-benzyl-13-isobutyl-12-methyl-N-(2-(3-methylisoxazol-5-yl)ethyl)-7,11,14,20-tetraoxo-18-phenyl-7,8,9,10,11,12,13,14,17,18,19,19a,20,21,22,23-hexadecahydro-16H-pyrazino[2′,11:6,7][1]oxa[4,7,10,14]tetraazacycloheptadecino[17,16-c]quinoline-9-carboxamide]
624 nM | 314% | COc1nccc2c1C(=O)N[C@H](C(=O)NCCc1nc(C3CC3)no1)CC(=O)N(C)[C@@H](CC(C)C)C(=O)N1CCCC[C@@H]1C(=O)N[C@H](Cc1ccccc1)CO2 [Example 511, (7S,11S,17aR,20R)-20-benzyl-N-(2-(3-cyclopropyl-1,2,4-oxadiazol-5-yl)ethyl)-11-isobutyl-4-methoxy-10-methyl-5,9,12,18-tetraoxo-5,6,7,8,9,10,11,12,15,16,17,17a,18,19,20,21-hexadecahydro-14H-dipyrido[2,1-f:3′,4′-p][1]oxa[4,7,10,14]tetraazacycloheptadecine-7-carboxamide]
300 nM | 316% | COc1nccc2c1C(=O)N[C@H](C(=O)NCCc1cc(C3CC3)on1)CC(=O)N(C)[C@@H](CC(C)C)C(=O)N1CCCC[C@@H]1C(=O)N[C@H](Cc1ccccc1)CO2 [Example 512, (7S,11S,17aR,20R)-20-benzyl-N-(2-(5-cyclopropylisoxazol-3-yl)ethyl)-11-isobutyl-4-methoxy-10-methyl-5,9,12,18-tetraoxo-5,6,7,8,9,10,11,12,15,16,17,17a,18,19,20,21-hexadecahydro-14H-dipyrido[2,1-f:3′,4′-p][1]oxa[4,7,10,14]tetraazacycloheptadecine-7-carboxamide]
170 nM | 304% | CC(C)C[C@H]1C(=O)N2CCCC[C@@H]2C(=O)N[C@H](Cc2ccccc2)COc2ccc3ncccc3c2C(=O)N[C@H](C(=O)NCCc2cc(C3CC3)no2)CC(=O)N1C [Example 514, (9S,13S,19aR,22R)-22-benzyl-N-(2-(3-cyclopropylisoxazol-5-yl)ethyl)-13-isobutyl-12-methyl-7,11,14,20-tetraoxo-7,8,9,10,11,12,13,14,17,18,19,19a,20,21,22,23-hexadecahydro-16H-pyrido[2′,11:6,7][1]oxa[4,7,10,14]tetraazacycloheptadecino[16,17-f]quinoline-9-carboxamide]
986 nM | 222% | COc1cc2c(cn1)OC[C@@H](Cc1ccccc1)NC(=O)[C@H]1CCCCN1C(=O)[C@H](CC(C)C)N(C)C(=O)C[C@@H](C(=O)NCCc1cc(C3CC3)no1)NC2=O [Example 517, (7S,11S,17aR,20R)-20-benzyl-N-(2-(3-cyclopropylisoxazol-5-yl)ethyl)-11-isobutyl-3-methoxy-10-methyl-5,9,12,18-tetraoxo-5,6,7,8,9,10,11,12,15,16,17,17a,18,19,20,21-hexadecahydro-14H-dipyrido[2,1-f:2′,3′-p][1]oxa[4,7,10,14]tetraazacycloheptadecine-7-carboxamide]

Second part, the compound before the results:

SMILES | EC50 | Emax
CC(C)C[C@H]1C(=O)N2CCCC[C@H]2C(=O)N[C@H](Cc2ccccc2)COc2cnc3c(F)cccc3c2C(=O)N[C@H](C(=O)NCCc2cc(C3CC3)no2)CC(=O)N1C [Example 500, (9S,13S,19aS,22R)-22-benzyl-N-(2-(3-cyclopropylisoxazol-5-yl)ethyl)-3-fluoro-13-isobutyl-12-methyl-7,11,14,20-tetraoxo-7,8,9,10,11,12,13,14,17,18,19,19a,20,21,22,23-hexadecahydro-16H-pyrido[2′,1′:6,7][1]oxa[4,7,10,14]tetraazacycloheptadecino[17,16-c]quinoline-9-carboxamide] | 553 nM | 199%
CC(C)C[C@H]1C(=O)N2CCCC[C@@H]2C(=O)N[C@H](Cc2ccccc2)COc2cnc3c(F)cccc3c2C(=O)N[C@H](C(=O)NCCc2nc(C3CC3)no2)CC(=O)N1C [Example 501, (9S,13S,19aR,22R)-22-benzyl-N-(2-(3-cyclopropyl-1,2,4-oxadiazol-5-yl)ethyl)-3-fluoro-13-isobutyl-12-methyl-7,11,14,20-tetraoxo-7,8,9,10,11,12,13,14,17,18,19,19a,20,21,22,23-hexadecahydro-16H-pyrido[2′,11:6,7][1]oxa[4,7,10,14]tetraazacycloheptadecino[17,16-c]quinoline-9-carboxamide] | 198 nM | 308%
CC(C)C[C@H]1C(=O)N(C)C2(CC2)C(=O)N[C@H](Cc2ccccc2)COc2cnc3ccccc3c2C(=O)N[C@H](C(=O)NCCc2cccc(-c3ncccn3)c2)CC(=O)N1C [Example 502, (3′S,7′S,13′R)-13′-benzyl-7′-isobutyl-6′,9′-dimethyl-1′,5′,8′,11′-tetraoxo-N-(3-(pyrimidin-2-yl)phenethyl)-2′,3′,4′,5′,6′,7′,8′,9′,11′,12′,13′,14′-dodecahydro-1′H-spiro[cyclopropane-1,10′-[1]oxa[4,7,10,14]tetraazacycloheptadecino[17,16-c]quinoline]-3′-carboxamide] | 752 nM | 295%
COc1cccc(CCNC(=O)[C@@H]2CC(=O)N(C)[C@@H](CC(C)C)C(=O)N(C)C(C)(C)C(=O)N[C@H](Cc3ccccc3)COc3cnc4ccccc4c3C(=O)N2)c1 [Example 503, (3S,7S,13R)-13-benzyl-7-isobutyl-N-(3-methoxyphenethyl)-6,9,10,10-tetramethyl-1,5,8,11-tetraoxo-1,2,3,4,5,6,7,8,9,10,11,12,13,14-tetradecahydro-[1]oxa[4,7,10,14]tetraazacycloheptadecino[17,16-c]quinoline-3-carboxamide] | 772 nM | 137%
CC(C)C[C@H]1C(=O)N2CCCC[C@@H]2C(=O)N[C@H](Cc2ccccc2)COc2ccc3ncccc3c2C(=O)N[C@H](C(=O)NCCc2cc(C3CC3)on2)CC(=O)N1C [Example 504, (9S,13S,19aR,22R)-22-benzyl-N-(2-(5-cyclopropylisoxazol-3-yl)ethyl)-13-isobutyl-12-methyl-7,11,14,20-tetraoxo-7,8,9,10,11,12,13,14,17,18,19,19a,20,21,22,23-hexadecahydro-16H-pyrido[2′,1′:6,7][1]oxa[4,7,10,14]tetraazacycloheptadecino[16,17-f]quinoline-9-carboxamide] | 149 nM | 298%
COc1cccc(CCNC(=O)[C@@H]2CC(=O)N(C)[C@@H](CC(C)C)C(=O)N(C)CC(=O)N[C@H](Cc3ccccc3)COc3ccc4ncc(F)cc4c3C(=O)N2)c1 [Example 507, (3S,7S,13R)-13-benzyl-20-fluoro-7-isobutyl-N-(3-methoxyphenethyl)-6,9-dimethyl-1,5,8,11-tetraoxo-1,2,3,4,5,6,7,8,9,10,11,12,13,14-tetradecahydro-[1]oxa[4,7,10,14]tetraazacycloheptadecino[16,17-f]quinoline-3-carboxamide] | 469 nM | 337%
COc1cccc(CCNC(=O)[C@@H]2CC(=O)N(C)[C@@H](CC(C)C)C(=O)N3CCN(c4ccccc4)C[C@@H]3C(=O)N[C@H](Cc3ccccc3)COc3cnc4ccccc4c3C(=O)N2)c1 [Example 509, (9S,13S,19aR,22R)-22-benzyl-13-isobutyl-N-(3-methoxyphenethyl)-12-methyl-7,11,14,20-tetraoxo-18-phenyl-7,8,9,10,11,12,13,14,17,18,19,19a,20,21,22,23-hexadecahydro-16H-pyrazino[2′,11:6,7][1]oxa[4,7,10,14]tetraazacycloheptadecino[17,16-c]quinoline-9-carboxamide] | 75 nM | 327%
COc1cccc(CCNC(=O)[C@@H]2CC(=O)N(C)[C@@H](CC(C)C)C(=O)N(C)CC(=O)N[C@H](Cc3ccccc3)COc3nccc(OC)c3C(=O)N2)c1 [Example 513, (3R,9S,13S)-3-benzyl-9-isobutyl-16-methoxy-N-(3-methoxyphenethyl)-7,10-dimethyl-5,8,11,15-tetraoxo-2,3,4,5,6,7,8,9,10,11,12,13,14,15-tetradecahydropyrido[3,2-p][1]oxa[4,7,10,14]tetraazacycloheptadecine-13-carboxamide] | 815 nM | 169%
